These results are taken from EP3272330A1, “COMPOSITION AND COSMETIC METHOD FOR REDUCING CELLULITE BLEMISHES” (Italfarmacia S.r.l., priority 2016, dated 2018).

The test system of data set [1] is adipose tissue. The data set is described as follows: Clinical study: histological analysis of adipose tissue after subcutaneous injection into areas with localized cellulite. It is filed as in vivo, patient. As to conditions: surfactant added to ascorbate composition. How it is done:
Step (c) Ten ml of diluents solution were used to reconstitute the mixture of sodium ascorbate and sodium chloride. Cosmetic Treatment: 5 ml of reconstituted solutions were given by subcutaneous injection into local areas with localized cellulite; lipolytic effect, adverse reactions and necrosis were evaluated by histological analysis.
The cosmetic treatment using the composition according to the invention was administered to a group of subjects who were well informed of the procedure; all gave their consent to the use of the results of the study for obtaining a patent grant. […]
A more specific and in-depth observation of the lower limbs was first made to assess, visually, the presence, location and extent of the irregularities of skin surface typical of cellulite. […] By photographic, thermographic and ultrasound instrumental investigations, the condition of each subject have been determined and classified according to a cellulite evaluation scale, ad hoc elaborated for the present study: • grade 0: exempt subjects; • grade 1: local skin rupture, characterized by few presence of irregular skin surface (madras skin or mattres phenomenon) with pit shaped introflexions; • grade 2: generalized skin rupture (skin roughness or orange peel skin). […]

The conditions of data set [2]: hydrophilic/lipophilic ratio; cited from earlier work.
For data set [3], the system named is adipocytes. The settings on record: concentration of 0.06% (3.3 mM); Gao Yan et al. 2009; cited from earlier work.
For data set [4] the following is noted: also printed as 0.0176% to 0.176%; Sakagami H. et al. 1996; cited from earlier work.

On to `CCCCCCCCCCCCCCCC(=O)OC[C@H](O)[C@H]1OC(=O)C(O)=C1O` [Ascorbyl Palmitate, ascorbyl palmitate], for which the “ability of surfactants to determine the improvement of the lipolytic action of ascorbic acid salt” value in data set [1] was “particularly effective”. Also, in data set [2], the HLB entry is on record as “HLB: 4-5”.
For `CCCCCCCC/C=C\CCCCCCCC(=O)OCC(O)CO` (stereo not drawn) [Glyceryl monooleate], the HLB result in data set [2] is recorded as “HLB: 2-3”.
With `O=C1O[C@H]([C@@H](O)CO)C(O)=C1O` [ascorbic acid], in data set [3], the “apoptotic damage and adipocytes decrease” value was “ineffective”. In addition, the “concentration range to induce an apoptotic effect” value in data set [4] is 1 to 10 mM.
Polysorbate 80: in data set [2], the HLB entry was “HLB: 10-12”.
